Test systems include SN12C renal; SK-MEL-28 melanoma; NCI-H522 lung; PC-3 prostate; UACC-257 melanoma; HS 578T breast; EKVX NSCLC; MDA-N; MDA-MB-435; RXF 393 renal.
Test in all cases: NCI tumour cell line growth inhibition, 48 h

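Values below derive from 48-hour exposures of cells grown in 96-well plates, with endpoints linearly interpolated between the two concentrations bracketing the appropriate inhibition level. TGI: total growth inhibition.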

In the case of `O=C(O)c1nc2ccc(Cl)cc2[nH]c1=O`, the TGI in the experiment on SN12C renal, with SK-MEL-28 melanoma, with NCI-H522 lung, in the experiment on PC-3 prostate, in the experiment on UACC-257 melanoma and in the experiment on HS 578T breast was greater than 100 µM in each case. Further, the TGI in the experiment on EKVX NSCLC, with MDA-N, with MDA-MB-435 and in the experiment with RXF 393 renal was greater than 100 µM in each case.
Regarding `CCOC(=O)c1nc2ccccc2nc1NCc1ccc(OC)c(OC)c1`, the TGI in the experiment with SN12C renal, with SK-MEL-28 melanoma, in the experiment with NCI-H522 lung, in the experiment on PC-3 prostate, with UACC-257 melanoma and in the experiment with HS 578T breast was greater than 100 µM throughout. The TGI in the experiment with EKVX NSCLC, in the experiment on MDA-N, in the experiment on MDA-MB-435 and in the experiment with RXF 393 renal was greater than 100 µM in each case.
As to `O=[N+]([O-])c1ccc(-n2nc3ccc4c(no[n+]4[O-])c3[n+]2[O-])c([N+](=O)[O-])c1`, the TGI is 7.03 µM with SN12C renal; 6.47 µM in the experiment on SK-MEL-28 melanoma; 4.03 µM with NCI-H522 lung; 20.7 µM with PC-3 prostate; 3.65 µM with UACC-257 melanoma; 8.6 µM with HS 578T breast. The TGI was 26.6 µM in the experiment on EKVX NSCLC, 4.47 µM with MDA-N, 7.39 µM in the experiment on MDA-MB-435 and 5.37 µM in the experiment with RXF 393 renal.
Take `COC1CC(OC2CCC3(C)C(=CCC4C3C(OC(C)=O)C(OC(=O)CC(C)C)C3(C)C(C(C)=O)CCC43O)C2)OC(C)C1OC1CC(OC)C(OC2CC(OC)C(OC3OC(C)C(O)C(OC)C3O)C(C)O2)C(C)O1` (stereo not given): the TGI in the experiment with SN12C renal, in the experiment on SK-MEL-28 melanoma, in the experiment with NCI-H522 lung, with PC-3 prostate, in the experiment on UACC-257 melanoma and with HS 578T breast was greater than 100 µM in each case. In addition, the TGI in the experiment with EKVX NSCLC was greater than 100 µM; in the experiment with MDA-N, greater than 100 µM; in the experiment with MDA-MB-435, 63.5 µM; with RXF 393 renal it was 47.2 µM.
On to `COC(=O)C1CCC(=O)N1CN(C(C)=O)c1cc(OC)ccc1OC` (stereo not given), for which the TGI in the experiment on SN12C renal, in the experiment on SK-MEL-28 melanoma, in the experiment on NCI-H522 lung, in the experiment on PC-3 prostate, with UACC-257 melanoma and with HS 578T breast was greater than 100 µM each time. Also, the TGI in the experiment with EKVX NSCLC, with MDA-N, with MDA-MB-435 and in the experiment on RXF 393 renal was greater than 100 µM in each case.
Regarding `CCCN(CCC)C(=S)N/N=C(/C)c1ccccc1O`, the TGI with SN12C renal was 26 µM; in the experiment with SK-MEL-28 melanoma it was greater than 100 µM; in the experiment with NCI-H522 lung, 25.5 µM; in the experiment on PC-3 prostate, greater than 100 µM; in the experiment on UACC-257 melanoma, 27.6 µM; with HS 578T breast, greater than 100 µM. Moreover, the TGI with EKVX NSCLC is greater than 68.9 µM; in the experiment on MDA-N, greater than 100 µM; in the experiment with MDA-MB-435 it was greater than 100 µM; in the experiment on RXF 393 renal, greater than 87.1 µM.
For the compound `Cn1c2c(c3ccccc31)CCN=C2C1CCCOC1=O` (stereo not given), the TGI in the experiment with SN12C renal, in the experiment on SK-MEL-28 melanoma, in the experiment on NCI-H522 lung, in the experiment on PC-3 prostate, in the experiment with UACC-257 melanoma and with HS 578T breast was greater than 100 µM in each case. Also, the TGI in the experiment on EKVX NSCLC, with MDA-N, with MDA-MB-435 and in the experiment with RXF 393 renal was greater than 100 µM in each case.
For `CNC(=O)N(CCC#N)CCN(C(=O)N(C)C)c1ccccc1`, the TGI in the experiment with SN12C renal, with SK-MEL-28 melanoma, in the experiment with NCI-H522 lung, in the experiment on PC-3 prostate, in the experiment on UACC-257 melanoma and in the experiment with HS 578T breast was greater than 100 µM each time. Moreover, the TGI in the experiment on EKVX NSCLC, in the experiment on MDA-N, in the experiment on MDA-MB-435 and in the experiment with RXF 393 renal was greater than 100 µM throughout.
Regarding `Cc1csc(NNC(N)=O)n1`, the TGI in the experiment on SN12C renal, in the experiment on SK-MEL-28 melanoma, with NCI-H522 lung, with PC-3 prostate, with UACC-257 melanoma and in the experiment with HS 578T breast was greater than 100 µM throughout. Also, the TGI in the experiment with EKVX NSCLC, with MDA-N, in the experiment with MDA-MB-435 and with RXF 393 renal was greater than 100 µM each time.
On to `C[C@@H](CC(=O)O)OC1OC(COC(=O)C(C)(C)C)C(OC(=O)C(C)(C)C)C(OC(=O)C(C)(C)C)C1OC(=O)C(C)(C)C` (stereo not given in full), for which the TGI with SN12C renal, with SK-MEL-28 melanoma, in the experiment with NCI-H522 lung, with PC-3 prostate, in the experiment with UACC-257 melanoma and in the experiment with HS 578T breast was greater than 100 µM each time. For the same compound, the TGI with EKVX NSCLC, in the experiment with MDA-N, in the experiment on MDA-MB-435 and in the experiment with RXF 393 renal was greater than 100 µM each time.
As for `CNCCCNC(=S)Cn1cc(C)c(=O)[nH]c1=O`, the TGI is greater than 100 µM in the experiment with SN12C renal; greater than 75.4 µM in the experiment on SK-MEL-28 melanoma; greater than 100 µM in the experiment on NCI-H522 lung; greater than 100 µM in the experiment on PC-3 prostate; greater than 59.4 µM in the experiment with UACC-257 melanoma; greater than 75.5 µM in the experiment with HS 578T breast. In addition, the TGI is greater than 100 µM in the experiment with EKVX NSCLC, greater than 100 µM in the experiment on MDA-N, greater than 31.6 µM with MDA-MB-435 and greater than 95.5 µM with RXF 393 renal.
In the case of `O=[N+]([O-])C1=Cc2cc(Cl)ccc2OC1c1cccc2ccccc12` (stereo not given), the TGI in the experiment with SN12C renal worked out at 2.54 µM; in the experiment with SK-MEL-28 melanoma, 3.13 µM; in the experiment on NCI-H522 lung, 2.9 µM; in the experiment on PC-3 prostate it was 2.23 µM; in the experiment on UACC-257 melanoma, 3.4 µM; in the experiment on HS 578T breast, 7.71 µM. In addition, the TGI with EKVX NSCLC was found to be 2.81 µM; with MDA-N it was 3.41 µM; in the experiment with MDA-MB-435, 5.35 µM; with RXF 393 renal it was 1.46 µM.
Take `CC(C)(C)OC(=O)N1CC(CCl)c2ccc(O)cc21` (stereo not given): the TGI in the experiment on SN12C renal was 11.5 µM; with SK-MEL-28 melanoma, 4.17 µM; in the experiment on NCI-H522 lung it was 2.01 µM; with PC-3 prostate it was 5.51 µM; in the experiment on UACC-257 melanoma it was 5.01 µM; with HS 578T breast it was 7.41 µM. In addition, the TGI with EKVX NSCLC is 6.73 µM; in the experiment with MDA-N, 3.67 µM; in the experiment with MDA-MB-435, 4.06 µM; with RXF 393 renal it was 2.85 µM.
For `O=C1CNC(=O)/C(=C/c2c[nH]c3ccccc23)N1`, the TGI in the experiment with SN12C renal, in the experiment with SK-MEL-28 melanoma, with NCI-H522 lung, in the experiment with PC-3 prostate, in the experiment with UACC-257 melanoma and in the experiment with HS 578T breast was greater than 100 µM each time. Also, the TGI with EKVX NSCLC, in the experiment on MDA-N, in the experiment on MDA-MB-435 and in the experiment on RXF 393 renal was greater than 100 µM in each case.
As for `CC(=O)c1c(SCCN2CCOCC2)n(-c2ccccc2)c(=S)n(-c2ccccc2)c1=O`, the TGI is 34.4 µM in the experiment with SN12C renal; 57.8 µM in the experiment with SK-MEL-28 melanoma; 48.4 µM in the experiment on NCI-H522 lung; 32 µM in the experiment with PC-3 prostate; 29.2 µM in the experiment with UACC-257 melanoma; greater than 100 µM in the experiment with HS 578T breast. Further, the TGI in the experiment with EKVX NSCLC is greater than 76.3 µM; in the experiment on MDA-N, 47.9 µM; in the experiment on MDA-MB-435, 33.6 µM; with RXF 393 renal it was 25.7 µM.
Regarding `C=C1C(=O)O[C@H]2C1C[C@@H](O)/C(C)=C/CC[C@@]1(C)O[C@H]21` (stereo not given in full), the TGI was greater than 55.9 µM with SN12C renal; 33.7 µM with SK-MEL-28 melanoma; 15.1 µM in the experiment with NCI-H522 lung; greater than 49.3 µM in the experiment on PC-3 prostate; 46.8 µM with UACC-257 melanoma; greater than 89.5 µM in the experiment on HS 578T breast. Further, the TGI in the experiment on EKVX NSCLC is 38.9 µM; with MDA-N, greater than 50.9 µM; in the experiment with MDA-MB-435 it was 23.7 µM; in the experiment on RXF 393 renal it was 26.5 µM.
Regarding `O=C1NC(N2CCCC(CO)C2)=N/C1=C\c1ccccc1` (stereo not given), the TGI with SN12C renal, with SK-MEL-28 melanoma, in the experiment with NCI-H522 lung, with PC-3 prostate, in the experiment with UACC-257 melanoma and in the experiment on HS 578T breast was greater than 100 µM in each case. Also, the TGI in the experiment on EKVX NSCLC, with MDA-N, in the experiment on MDA-MB-435 and with RXF 393 renal was greater than 100 µM throughout.
As to `CC[C@H](C)C1=C(OC(C)=O)[N@+]2([O-])Oc3ccc(-c4c(O)c(O)c(-c5ccc(OC(C)=O)cc5)c(OC(C)=O)c4OC(C)=O)cc3O[C@]2([C@@H](C)CC)C(=O)N1O`, the TGI in the experiment on SN12C renal was greater than 50 µM; with SK-MEL-28 melanoma, greater than 50 µM; in the experiment on NCI-H522 lung, 22.2 µM; with PC-3 prostate, greater than 50 µM; with UACC-257 melanoma, greater than 50 µM; in the experiment with HS 578T breast, greater than 50 µM. Moreover, the TGI in the experiment on EKVX NSCLC, in the experiment on MDA-N, with MDA-MB-435 and in the experiment on RXF 393 renal was greater than 50 µM in each case.
